# Patent publication US20240024216A1, “METHODS AND MATERIALS FOR TREATING HAIR LOSS” (The Penn State Research Foundation, priority 2021, published 2024)
# Experiments:
# [1] = test system: human foreskin dermal primary Schwann cells; assay: Scratch wound healing migration assay, primary dermal Schwann cells; type: cell-based
# Protocol: Dermal Schwann cells isolation culture conditions and characterization—The separated dermis was minced into small pieces and placed in a petri dish containing collagenase in DMEM basal medium at 37° C. for 2.5 hours. The dermis was completely dissociated and the medium was cloudy. The dissociated medium was collected in tube and centrifuged at 1500 rpm for 5 minutes. The pellet was resuspended in complete DMEM medium, added on poly-L-lysine coated dish and the dish was incubated at 37° C. in 5% CO2 incubator for overnight. Next day, adhered cells were treated with 10 μM cytosine arabinoside containing DMEM complete medium and incubated at 37° C. in 5% CO2 incubator for 24 hours. After, the cells were cultured in Schwann cells culture medium (ScienCell Research, Catlog No. 1701) until the cells reached about 95% confluence.
# Keratinocytes/Schwann cells/fibroblasts (7×10^4 cells/well keratinocytes and 3.5×10^4 cells/well of SCs and FBs) with their respective medium were seeded on pre-coated either with collagen-I/PLL/no 96-well ImageLock microplate for 6 hours (Incucyte-sartorius plate, Cat log 4379). For the drug treatment cells were pretreated with 4-AP prior to coating for 16-18 hours. […] The plate was incubated in Incucyte automated imaging system, wound healing and cells migration was monitored by time-lapse photography capturing every hour from 0 to 42 hours. […]
# [2] = test system: keratinocytes co-cultured with SCs (10:1); assay: Co-culture scratch assay, keratinocytes with Schwann cells; type: cell-based, human
# Protocol: To determine the influence of Schwann cells and fibroblast on keratinocytes migration and proliferation wound healing scratch assay was conducted. The co-culture experiment performed in Keratinocytes to either Schwann cells or fibroblasts in a ratio of 10:1 with same proposition of their respective medium were seeded on 96-well ImageLock microplate for 6 hours and the wells were pre-coated with collagen-I plate. For the drug treatment cells were pretreated with 4-AP prior to coating for 16-18 hours. Next, the wound scratch was created and treated cells with and without 4-AP in medium. Imaged for every hour until 24 hour and analyzed for percent of closure as described above procedure.
compound,measurement,setting,value
"Nc1ccncc1 [4-AP, 4-aminopyridine]",time to 80% scratch closure,"[1]; 1 mM 4-AP, 23 hours without treatment",11 h
same,SOX10 and NGF expression in SCs,[1]; compared to controls,increased
same,percentage of wound closure,"[2]; at 15 hours, 80% in non-treated",98%
same,time to scratch closure,"[2]; with 4-AP, 20 hours without treatment",≤ 15 h
